From ChEMBL document CHEMBL1201862, “PubChem BioAssay data set” (2004)
Activity calls are given as the source filed them.

What was measured:
[1] = cells; format: functional, cell-based; settings: HEK-CNG
[2] = biological target: T1, Galanin receptor type 3 (Homo sapiens, UniProt O60755); test: Fluorescence-based cell-based primary high throughput dose response assay to identify antagonists of the Galanin Receptor 3 (GalR3).; format: functional
T1 sequence (O60755 whole entry): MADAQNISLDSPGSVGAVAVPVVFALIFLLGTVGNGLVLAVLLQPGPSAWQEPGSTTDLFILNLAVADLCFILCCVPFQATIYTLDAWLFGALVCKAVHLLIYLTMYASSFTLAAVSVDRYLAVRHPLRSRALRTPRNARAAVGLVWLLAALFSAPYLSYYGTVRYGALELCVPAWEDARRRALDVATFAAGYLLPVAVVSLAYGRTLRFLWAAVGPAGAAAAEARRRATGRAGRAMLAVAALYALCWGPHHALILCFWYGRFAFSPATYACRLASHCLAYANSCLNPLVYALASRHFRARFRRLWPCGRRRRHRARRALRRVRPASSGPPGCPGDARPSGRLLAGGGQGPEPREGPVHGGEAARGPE

[3] = biological target: T2, Fatty acid synthase (Homo sapiens, UniProt P49327); test: inhibition of human FAS-TE enzyme activity – biochemical, endpoint fluorescence intensity, uHTS hits, dose response (AID 624327); format: functional;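 also: fluorescence from hydrolysis of an O-methyl fluorescein acyl ester substrate by the enzyme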
T2 sequence (P49327 whole entry): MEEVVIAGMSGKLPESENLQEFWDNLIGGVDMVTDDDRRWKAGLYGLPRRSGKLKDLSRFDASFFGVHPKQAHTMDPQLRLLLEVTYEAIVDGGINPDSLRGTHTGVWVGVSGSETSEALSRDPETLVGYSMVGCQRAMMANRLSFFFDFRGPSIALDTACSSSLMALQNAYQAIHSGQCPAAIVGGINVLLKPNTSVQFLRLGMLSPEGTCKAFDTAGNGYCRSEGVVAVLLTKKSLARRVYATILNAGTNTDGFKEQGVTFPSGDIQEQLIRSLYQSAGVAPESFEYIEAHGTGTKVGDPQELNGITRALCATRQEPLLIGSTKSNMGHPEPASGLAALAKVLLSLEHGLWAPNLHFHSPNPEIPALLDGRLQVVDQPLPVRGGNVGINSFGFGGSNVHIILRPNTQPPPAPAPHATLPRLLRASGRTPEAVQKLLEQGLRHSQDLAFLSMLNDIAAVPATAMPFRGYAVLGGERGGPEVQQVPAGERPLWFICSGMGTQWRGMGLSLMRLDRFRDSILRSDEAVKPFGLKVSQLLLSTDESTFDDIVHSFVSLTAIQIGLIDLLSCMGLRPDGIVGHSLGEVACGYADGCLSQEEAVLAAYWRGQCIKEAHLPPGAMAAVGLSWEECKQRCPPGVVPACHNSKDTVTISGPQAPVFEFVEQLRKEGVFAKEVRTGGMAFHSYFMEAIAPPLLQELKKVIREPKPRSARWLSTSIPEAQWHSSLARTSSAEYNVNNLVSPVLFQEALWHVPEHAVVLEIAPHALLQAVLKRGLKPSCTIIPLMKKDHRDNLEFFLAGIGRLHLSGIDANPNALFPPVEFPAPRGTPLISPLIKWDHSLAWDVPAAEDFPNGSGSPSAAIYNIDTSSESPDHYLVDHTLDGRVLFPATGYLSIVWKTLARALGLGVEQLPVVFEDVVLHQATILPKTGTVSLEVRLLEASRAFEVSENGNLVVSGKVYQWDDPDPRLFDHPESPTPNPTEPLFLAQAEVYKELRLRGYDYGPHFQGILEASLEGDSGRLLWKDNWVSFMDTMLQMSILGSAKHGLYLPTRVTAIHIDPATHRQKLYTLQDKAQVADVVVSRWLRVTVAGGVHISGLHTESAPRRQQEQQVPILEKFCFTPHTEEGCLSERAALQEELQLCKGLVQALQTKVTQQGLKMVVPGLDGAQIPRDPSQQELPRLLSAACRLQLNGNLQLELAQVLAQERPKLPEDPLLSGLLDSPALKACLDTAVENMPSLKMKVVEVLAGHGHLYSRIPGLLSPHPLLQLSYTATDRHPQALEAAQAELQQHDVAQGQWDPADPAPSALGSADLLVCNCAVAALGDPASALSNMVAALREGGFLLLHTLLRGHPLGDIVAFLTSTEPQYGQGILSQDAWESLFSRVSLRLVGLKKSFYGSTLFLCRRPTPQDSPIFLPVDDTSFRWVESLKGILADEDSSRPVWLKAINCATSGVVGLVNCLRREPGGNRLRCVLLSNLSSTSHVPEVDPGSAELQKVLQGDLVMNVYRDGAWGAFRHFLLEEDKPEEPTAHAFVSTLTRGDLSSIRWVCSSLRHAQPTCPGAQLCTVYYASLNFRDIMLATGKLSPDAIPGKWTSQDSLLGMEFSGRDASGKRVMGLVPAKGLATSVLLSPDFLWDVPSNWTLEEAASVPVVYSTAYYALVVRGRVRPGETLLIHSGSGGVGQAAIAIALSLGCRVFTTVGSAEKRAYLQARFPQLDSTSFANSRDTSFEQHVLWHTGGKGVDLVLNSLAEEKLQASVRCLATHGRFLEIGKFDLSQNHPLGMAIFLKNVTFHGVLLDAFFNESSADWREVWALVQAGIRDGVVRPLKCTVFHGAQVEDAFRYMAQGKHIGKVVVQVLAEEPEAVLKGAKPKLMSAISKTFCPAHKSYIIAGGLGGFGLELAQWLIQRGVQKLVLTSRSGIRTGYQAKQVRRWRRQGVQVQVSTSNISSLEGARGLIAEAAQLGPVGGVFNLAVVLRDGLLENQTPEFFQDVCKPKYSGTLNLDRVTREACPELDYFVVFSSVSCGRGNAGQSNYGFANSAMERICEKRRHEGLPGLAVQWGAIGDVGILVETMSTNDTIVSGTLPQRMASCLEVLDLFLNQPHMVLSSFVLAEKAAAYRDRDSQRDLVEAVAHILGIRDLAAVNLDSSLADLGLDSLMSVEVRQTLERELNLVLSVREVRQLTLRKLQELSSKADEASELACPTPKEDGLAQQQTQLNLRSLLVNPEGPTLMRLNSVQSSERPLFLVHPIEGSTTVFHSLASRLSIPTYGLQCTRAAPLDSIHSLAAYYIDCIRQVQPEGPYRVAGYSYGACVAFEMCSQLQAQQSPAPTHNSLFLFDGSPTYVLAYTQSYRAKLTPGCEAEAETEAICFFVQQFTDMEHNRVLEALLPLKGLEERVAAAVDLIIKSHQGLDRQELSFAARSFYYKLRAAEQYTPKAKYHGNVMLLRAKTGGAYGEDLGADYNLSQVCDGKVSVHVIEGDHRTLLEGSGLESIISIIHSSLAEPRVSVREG

[4] = biological target: T2, Fatty acid synthase; test: inhibition of human FAS-TE enzyme activity – biochemical, kinetic fluorescence intensity, dose response (AID 624326); format: functional;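 also: rate of fluorescence rise from hydrolysis of a fluorogenic O-methyl fluorescein ester substrate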
[5] = biological target: T3, Long-chain-fatty-acid--AMP ligase FadD28 (Mycobacterium tuberculosis, UniProt P9WQ59); test: Fluorescence polarization aasay to screen for inhibitors that compete for the binding of FadD28 to a bisubstrate Measured in Biochemical System Using Plate Reader - 2147-01_Inhibitor_Dose_CherryPick_Activity.; format: functional, Mycobacterium tuberculosis H37Rv
T3 sequence (P9WQ59 whole entry): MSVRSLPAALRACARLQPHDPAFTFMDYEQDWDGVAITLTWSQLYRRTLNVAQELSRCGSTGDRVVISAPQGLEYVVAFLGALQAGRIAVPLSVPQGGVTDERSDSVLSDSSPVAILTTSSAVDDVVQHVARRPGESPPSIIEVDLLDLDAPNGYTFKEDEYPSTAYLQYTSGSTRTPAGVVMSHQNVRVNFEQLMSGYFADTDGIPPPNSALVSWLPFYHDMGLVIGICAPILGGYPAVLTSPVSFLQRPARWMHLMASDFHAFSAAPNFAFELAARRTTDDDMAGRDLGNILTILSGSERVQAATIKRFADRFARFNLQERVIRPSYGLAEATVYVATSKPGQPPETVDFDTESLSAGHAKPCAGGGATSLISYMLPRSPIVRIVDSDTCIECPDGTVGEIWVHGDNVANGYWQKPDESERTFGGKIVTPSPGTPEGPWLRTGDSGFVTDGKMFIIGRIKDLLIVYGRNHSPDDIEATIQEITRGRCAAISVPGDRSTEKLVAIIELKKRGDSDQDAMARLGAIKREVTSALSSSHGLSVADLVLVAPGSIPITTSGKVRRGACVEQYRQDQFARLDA

[6] = cells
[7] = biological target: T4, Oxysterols receptor LXR-beta (Homo sapiens, UniProt P55055); format: functional, cell-based;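 also: Cell-based luminescence dose-response assay of agonist activity at LXR, run as a confirmatory counterscreen to a daf-12 agonist screen; HEK293 cells with Gal4-LXR fusion and GAL4-driven luciferase reporter; agonist potency from rising luciferase signal of a Gal4-LXR reporter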
T4 sequence (P55055 whole entry): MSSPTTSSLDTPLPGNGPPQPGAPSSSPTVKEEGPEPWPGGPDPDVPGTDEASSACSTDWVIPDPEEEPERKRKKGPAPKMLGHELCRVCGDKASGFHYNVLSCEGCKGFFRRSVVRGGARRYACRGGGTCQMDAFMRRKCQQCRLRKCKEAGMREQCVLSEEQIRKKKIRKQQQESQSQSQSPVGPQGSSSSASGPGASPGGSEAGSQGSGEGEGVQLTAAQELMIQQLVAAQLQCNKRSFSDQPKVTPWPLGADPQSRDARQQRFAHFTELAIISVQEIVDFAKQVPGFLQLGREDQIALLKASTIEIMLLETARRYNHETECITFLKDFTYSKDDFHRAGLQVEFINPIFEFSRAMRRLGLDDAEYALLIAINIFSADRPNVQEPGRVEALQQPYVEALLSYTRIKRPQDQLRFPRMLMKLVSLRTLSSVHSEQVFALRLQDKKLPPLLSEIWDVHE

[8] = biological target: T5, Heat shock factor protein 1 (Mus musculus, UniProt P38532); test: enhancement of HSF1-driven luciferase signal – cell-based, NIH3T3, luminescence, dose retest, confirmation (AID 435004); format: functional;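 also: stress induced by proteasome inhibitor MG132 added 30 min after compound; luciferase reporter driven by HSF1 response element in NIH3T3 cells; actives raise luminescence as potentiators of the MG132 stress response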
T5 sequence (P38532 whole entry): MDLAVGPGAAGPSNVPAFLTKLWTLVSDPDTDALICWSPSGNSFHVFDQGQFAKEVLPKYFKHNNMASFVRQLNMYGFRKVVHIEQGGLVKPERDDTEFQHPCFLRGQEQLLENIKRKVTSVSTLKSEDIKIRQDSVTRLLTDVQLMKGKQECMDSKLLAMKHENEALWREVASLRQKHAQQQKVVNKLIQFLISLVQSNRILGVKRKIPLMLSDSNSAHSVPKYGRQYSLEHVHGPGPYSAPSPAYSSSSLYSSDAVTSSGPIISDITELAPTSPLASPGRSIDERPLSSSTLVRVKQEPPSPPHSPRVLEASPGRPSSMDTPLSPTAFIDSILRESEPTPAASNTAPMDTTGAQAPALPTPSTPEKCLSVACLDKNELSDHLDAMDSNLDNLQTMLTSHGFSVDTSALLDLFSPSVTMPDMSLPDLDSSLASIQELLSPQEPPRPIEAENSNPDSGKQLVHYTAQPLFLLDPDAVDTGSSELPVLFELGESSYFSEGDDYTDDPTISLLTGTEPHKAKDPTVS

[9] = biological target: T6, DNA repair protein RAD52 homolog (Homo sapiens, UniProt P43351); format: functional, biochemical
T6 sequence (P43351 whole entry): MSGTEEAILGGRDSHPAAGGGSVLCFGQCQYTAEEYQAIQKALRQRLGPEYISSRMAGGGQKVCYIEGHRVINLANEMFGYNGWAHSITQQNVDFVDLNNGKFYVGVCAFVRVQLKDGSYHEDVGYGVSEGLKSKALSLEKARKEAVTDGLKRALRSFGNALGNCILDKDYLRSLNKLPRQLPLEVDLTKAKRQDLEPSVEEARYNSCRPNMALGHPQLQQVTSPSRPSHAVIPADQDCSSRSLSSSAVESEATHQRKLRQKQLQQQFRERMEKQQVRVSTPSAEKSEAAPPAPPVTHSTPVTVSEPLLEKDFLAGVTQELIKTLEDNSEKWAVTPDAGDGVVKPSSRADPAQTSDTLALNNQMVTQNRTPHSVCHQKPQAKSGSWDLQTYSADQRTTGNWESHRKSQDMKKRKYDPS

[10] = system: H4; test: Luminescence Cell-Based Dose Response HTS to Identify Activators of 5'UTR Stem-Loop Driven Prion Protein mRNA Translation in H4 Neuroglioblastoma Cells. [Related pubchem assays: 1829 (Project Summary), 1814 (Primary HTS)]; format: functional; settings: Homo sapiens
[11] = Luminescence Cell-Based Dose Confirmation to Identify Activators of 5'UTR Stem-Loop Driven Alpha-Synuclein mRNA Translation in H4 Neuroglioblastoma Cells. [Related pubchem assays: 1829 (Project Summary), 1814 (Primary HTS)]; format: functional
[12] = Luminescence Cell-Based Dose Response to Identify Activators of Luciferase Translation or Activity in H4-C Neuroglioblastoma Cells. [Related pubchem assays: 1829 (Project Summary), 1814 (Primary HTS)]; format: functional
[13] = Luminescence Cell-Based Dose Response to Identify Activators of 5'UTR Stem-Loop Driven Prion Protein mRNA Translation in H4-C Neuroglioblastoma Cells. [Related pubchem assays: 1829 (Project Summary), 1814 (Primary HTS)]; format: functional
[14] = Luminescence Cell-Based Dose Response HTS to Identify Activators of Luciferase Translation or Activity in H4 […] Cells. [Related pubchem assays: 1829 (Project Summary), 1814 (Primary HTS)]; format: functional
[15] = biological target: T7, Histone-lysine N-methyltransferase NSD2 (Homo sapiens, UniProt O96028); format: biochemical
T7 sequence (O96028 whole entry): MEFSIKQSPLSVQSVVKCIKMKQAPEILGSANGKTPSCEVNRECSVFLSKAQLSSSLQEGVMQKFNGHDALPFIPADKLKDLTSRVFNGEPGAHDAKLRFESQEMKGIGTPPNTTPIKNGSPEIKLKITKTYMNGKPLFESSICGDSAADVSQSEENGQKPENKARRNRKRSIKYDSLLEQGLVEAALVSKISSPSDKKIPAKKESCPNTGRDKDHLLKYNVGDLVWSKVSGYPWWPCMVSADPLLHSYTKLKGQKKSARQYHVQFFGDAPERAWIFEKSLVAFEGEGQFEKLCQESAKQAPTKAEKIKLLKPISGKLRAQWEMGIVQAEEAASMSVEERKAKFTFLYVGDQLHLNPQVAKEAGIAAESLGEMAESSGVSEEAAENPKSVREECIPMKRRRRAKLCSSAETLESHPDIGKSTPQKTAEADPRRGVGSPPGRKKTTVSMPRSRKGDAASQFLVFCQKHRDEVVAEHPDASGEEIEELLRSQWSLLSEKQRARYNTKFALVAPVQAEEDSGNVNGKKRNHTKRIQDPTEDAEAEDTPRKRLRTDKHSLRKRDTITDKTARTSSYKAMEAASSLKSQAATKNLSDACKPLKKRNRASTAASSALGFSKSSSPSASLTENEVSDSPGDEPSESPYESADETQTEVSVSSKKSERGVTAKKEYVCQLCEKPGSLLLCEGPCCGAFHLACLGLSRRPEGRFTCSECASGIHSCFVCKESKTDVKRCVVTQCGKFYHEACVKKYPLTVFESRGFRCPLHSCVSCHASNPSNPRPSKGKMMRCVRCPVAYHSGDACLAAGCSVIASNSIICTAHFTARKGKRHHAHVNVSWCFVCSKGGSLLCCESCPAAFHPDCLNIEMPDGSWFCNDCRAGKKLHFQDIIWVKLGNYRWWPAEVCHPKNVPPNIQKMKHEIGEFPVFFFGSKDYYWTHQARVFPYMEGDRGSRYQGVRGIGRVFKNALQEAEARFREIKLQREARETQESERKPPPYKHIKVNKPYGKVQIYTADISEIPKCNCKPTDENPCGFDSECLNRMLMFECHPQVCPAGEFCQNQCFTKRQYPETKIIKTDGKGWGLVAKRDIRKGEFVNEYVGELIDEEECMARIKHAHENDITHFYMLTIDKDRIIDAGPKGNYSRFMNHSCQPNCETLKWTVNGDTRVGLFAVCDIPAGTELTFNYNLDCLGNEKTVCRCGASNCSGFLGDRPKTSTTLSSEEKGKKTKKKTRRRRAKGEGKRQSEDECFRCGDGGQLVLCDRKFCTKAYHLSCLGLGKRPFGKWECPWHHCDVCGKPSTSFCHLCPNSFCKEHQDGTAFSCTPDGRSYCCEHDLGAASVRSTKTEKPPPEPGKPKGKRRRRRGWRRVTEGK

[16] = biological target: T8, Calpain-2 catalytic subunit (Sus scrofa, UniProt P43367); test: m-calpain protease blockers, concentration series – biochemical, fluorogenic peptide substrate, dose response (AID 1420); format: functional
T8 sequence (P43367 whole entry): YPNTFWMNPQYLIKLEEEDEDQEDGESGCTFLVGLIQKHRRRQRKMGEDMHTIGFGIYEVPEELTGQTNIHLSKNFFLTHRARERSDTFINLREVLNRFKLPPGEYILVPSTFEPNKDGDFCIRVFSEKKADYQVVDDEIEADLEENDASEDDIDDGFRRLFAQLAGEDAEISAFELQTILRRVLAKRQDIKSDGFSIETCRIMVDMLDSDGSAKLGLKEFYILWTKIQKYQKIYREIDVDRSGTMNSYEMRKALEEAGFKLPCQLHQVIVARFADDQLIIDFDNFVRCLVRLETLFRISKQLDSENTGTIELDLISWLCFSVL

[17] = biological target: Paired box protein Pax-8 (Homo sapiens, UniProt Q06710); test: PAX8 transcriptional activity inhibition in RMG-I – RMG-I cells, luciferase, cherry-pick, dose response (AID 687027); format: functional, cell-based;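 also: luciferase reporter driven by Pax8 target thyroperoxidase promoter measured by SteadyGlo luminescence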
Paired box protein Pax-8, sequence (Q06710 whole entry): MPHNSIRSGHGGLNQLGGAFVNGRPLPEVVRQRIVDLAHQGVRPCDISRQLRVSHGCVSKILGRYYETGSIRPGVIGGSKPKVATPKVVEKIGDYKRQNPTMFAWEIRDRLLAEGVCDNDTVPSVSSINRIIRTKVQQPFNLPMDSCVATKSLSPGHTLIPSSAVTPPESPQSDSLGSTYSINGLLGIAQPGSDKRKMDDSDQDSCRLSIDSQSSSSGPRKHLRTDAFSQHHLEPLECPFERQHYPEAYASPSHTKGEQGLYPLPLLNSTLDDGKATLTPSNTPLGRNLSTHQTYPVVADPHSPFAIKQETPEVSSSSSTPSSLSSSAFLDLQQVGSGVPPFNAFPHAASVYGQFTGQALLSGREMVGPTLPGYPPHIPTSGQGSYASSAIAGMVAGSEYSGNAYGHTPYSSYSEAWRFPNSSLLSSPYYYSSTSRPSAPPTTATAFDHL

For `FC(F)(F)c1cccc(/C=N/NC(=S)NC2CCCCC2)c1`, the EC50 [1] was > 29.9 µM (inactive) and the IC50 [2] was 3.19 µM (active).
For `Cc1cccc(C)c1Cn1c(C)c(C(=O)NCc2ccc([N+](=O)[O-])cc2)sc1=O`, the IC50 [3] was 6.75 µM (active), the IC50 [4] was 4.48 µM (active) and the AC50 [5] was 20.5 µM (active).
For `COc1c(C(=O)Nc2nnc(C3CC3)s2)csc1Cl`, the EC50 [6] was > 67.6 µM (inactive) and the EC50 [7] was > 67.6 µM (inactive).
In the case of `CCOC(=O)Cn1nnnc1C(C(C)C)N(Cc1cccs1)Cc1cc2cc(C)ccc2nc1O` (stereo not drawn), the EC50 [1] is reported as > 29.9 µM (inactive) and the IC50 [2] is reported as > 29.9 µM (inactive).
For `Nc1nn(-c2cccc(F)n2)cc1-c1ccc(Cl)cc1`, the EC50 [8] was > 260 µM (inconclusive), the EC50 [6] was > 67.6 µM (inactive) and the EC50 [7] was > 67.6 µM (inactive).
For `CN1CCN(c2ccc(NC(=O)c3cc(S(N)(=O)=O)ccc3N3CCOCC3)cc2)CC1`, the AC50 [9] was 8.83 µM (active).
With `C[C@H](NCCc1ccc(O)cc1)[C@H](O)c1ccc(O)cc1` [RITODRINE] the EC50 [1] was > 29.9 µM (inactive) and the IC50 [2] was 0.932 µM (active).
For `c1ccc2c(c1)COc1c3cc4c(cc3nn1-2)OCO4`, the EC50 [6] was > 67.6 µM (inactive) and the EC50 [7] was > 67.6 µM (inactive).
In the case of `O=C(Nc1ccccc1)N1CC=C(c2ccccc2)CC1`, the EC50 [10] is reported as < 0.1 µM (active), the EC50 [11] is reported as 0.272 µM (active) and the EC50 [12] is reported as 0.237 µM (active). The EC50 [13] was 0.376 µM (active).
In the case of `O=C(Nc1nccs1)c1c(O)nc2c(c1O)CCCC2`, the EC50 [10] is reported as < 0.1 µM (active), the EC50 [11] is reported as 0.475 µM (active) and the EC50 [14] is reported as 0.999 µM (active). The EC50 [12] was 0.446 µM (active) and the EC50 [13] was 0.504 µM (active).
With `O=C1c2cccc(Sc3ccccc3)c2C(=O)c2c(Sc3ccccc3)cccc21` the AC50 [15] was 5.27 µM (active) and the IC50 [16] was 6.16 µM (not active).
For `CC1OC(OC2C=C3CCC4C(CCC5(C)C(c6ccc(=O)oc6)CCC45O)C3(C)CC2)C(O)C(OC2OC(CO)C(O)C(O)C2O)C1O` (stereo not drawn), the EC50 [1] was > 29.9 µM (inactive), the IC50 [2] was > 29.9 µM (inactive) and the AC50 [17] was < 0.26 µM (active).
For `c1ccc(-c2csc(Nc3ccc4c(c3)OCO4)n2)cc1`, the EC50 [6] was > 67.6 µM (inactive) and the EC50 [7] was > 67.6 µM (inactive).
